Results reported in patent publication US20110104103A1, “Method of conjugating therapeutic compounds to cell targeting devices via metal complexes” (KREATECH BIOTECHNOLOGY B.V., priority 2005, published 2011).
“Also recorded” adds a separate entry of the source. Each block holds one molecule with its values, some of them ahead of it.

Tests used:
[1] = biological target: T1, αvβ3-integrin expressed on the surface of HUVEC (Homo sapiens, UniProt P05106+P06756); assay: Competitive displacement of 125I-labeled echistatin; details: displacement of 125I-echistatin, read-out: IC50 (binding affinity)
T1 construct: αvβ3-integrin expressed on the surface of HUVEC; endogenous in cells; host or cells: HUVEC (confluent monolayers)
T1 sequence (P06756 31-889 limits assumed): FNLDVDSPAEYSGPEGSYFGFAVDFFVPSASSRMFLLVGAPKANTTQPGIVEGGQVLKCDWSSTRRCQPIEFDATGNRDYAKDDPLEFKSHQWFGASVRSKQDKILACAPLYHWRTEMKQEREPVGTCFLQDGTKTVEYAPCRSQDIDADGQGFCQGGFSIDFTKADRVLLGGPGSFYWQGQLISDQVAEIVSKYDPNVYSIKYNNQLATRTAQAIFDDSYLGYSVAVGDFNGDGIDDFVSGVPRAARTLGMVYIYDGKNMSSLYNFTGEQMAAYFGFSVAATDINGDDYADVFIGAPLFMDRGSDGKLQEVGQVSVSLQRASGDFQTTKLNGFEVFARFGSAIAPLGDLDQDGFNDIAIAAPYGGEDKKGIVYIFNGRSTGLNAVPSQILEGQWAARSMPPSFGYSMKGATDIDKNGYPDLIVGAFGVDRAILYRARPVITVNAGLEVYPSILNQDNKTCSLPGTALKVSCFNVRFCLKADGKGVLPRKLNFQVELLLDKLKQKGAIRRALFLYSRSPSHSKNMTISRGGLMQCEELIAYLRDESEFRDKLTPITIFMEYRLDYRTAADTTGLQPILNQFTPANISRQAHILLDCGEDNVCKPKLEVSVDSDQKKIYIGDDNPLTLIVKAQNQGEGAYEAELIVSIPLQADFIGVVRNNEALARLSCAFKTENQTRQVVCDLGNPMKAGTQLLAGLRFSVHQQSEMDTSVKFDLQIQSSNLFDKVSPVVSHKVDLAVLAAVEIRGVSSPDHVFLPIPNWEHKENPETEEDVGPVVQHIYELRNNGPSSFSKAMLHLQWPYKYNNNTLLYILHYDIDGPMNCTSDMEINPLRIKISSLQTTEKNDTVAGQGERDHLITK
T1 sequence (P06756 891-1048 partner limits assumed): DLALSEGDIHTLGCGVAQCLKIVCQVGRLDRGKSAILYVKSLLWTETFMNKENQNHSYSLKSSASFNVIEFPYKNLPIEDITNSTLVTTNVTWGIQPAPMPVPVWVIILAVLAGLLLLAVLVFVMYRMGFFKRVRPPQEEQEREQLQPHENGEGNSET
T1 sequence (P05106 27-788): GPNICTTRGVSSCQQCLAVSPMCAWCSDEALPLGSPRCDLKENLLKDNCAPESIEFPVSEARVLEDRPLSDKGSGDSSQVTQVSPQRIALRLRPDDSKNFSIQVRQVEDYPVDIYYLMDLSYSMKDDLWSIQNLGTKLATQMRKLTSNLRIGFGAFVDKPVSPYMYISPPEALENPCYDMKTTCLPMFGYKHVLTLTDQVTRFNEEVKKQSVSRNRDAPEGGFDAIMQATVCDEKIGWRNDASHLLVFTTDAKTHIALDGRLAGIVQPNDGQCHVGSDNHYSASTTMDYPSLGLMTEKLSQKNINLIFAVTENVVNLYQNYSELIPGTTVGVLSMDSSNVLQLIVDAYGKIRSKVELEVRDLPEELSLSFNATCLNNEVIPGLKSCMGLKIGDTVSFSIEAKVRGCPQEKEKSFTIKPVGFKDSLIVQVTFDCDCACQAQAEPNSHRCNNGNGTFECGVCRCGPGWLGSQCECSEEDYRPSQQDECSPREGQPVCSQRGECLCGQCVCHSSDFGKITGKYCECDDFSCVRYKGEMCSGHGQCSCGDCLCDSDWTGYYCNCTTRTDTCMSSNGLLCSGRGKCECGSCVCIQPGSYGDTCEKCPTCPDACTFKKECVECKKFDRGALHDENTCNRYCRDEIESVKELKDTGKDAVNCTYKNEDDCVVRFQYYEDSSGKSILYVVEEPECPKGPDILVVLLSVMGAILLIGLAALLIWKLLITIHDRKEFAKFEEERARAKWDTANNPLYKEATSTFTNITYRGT
Protocol: In a different experimental setup that allowed the calculation for binding constants, we explored the affinity of RGD-equipped PTK787-cisULS-albumins. ^125I-labeled echistatin was used as a radioligand for αvβ3-integrin expressed on the surface of HUVEC. Competitive binding studies were performed by coincubating using confluent monolayers of HUVEC with the radiolabeled ligand and non-radiolabeled complexes.

UUO rats = assay: Unilateral ureteral obstruction (UUO) model of renal fibrosis; type: in vivo; details: day 3
Protocol: Animals were divided into 4 groups: normal rats, fibrotic control animals (vehicle, 5% glucose), TKI-LZM (25 mg/kg equiv. to 630 μg/kg TKI) and free, unconjugated TKI (630 μg/kg). TKI was dissolved in 20% hydroxylpropyl-β-cyclodextrin in water with 5% DMSO, whereas TKI-LZM was dissolved in 5% glucose. To allow unhindered uptake of the products in the kidneys, rats were injected intravenously with either of these compounds 2 h before the uretheral obstruction. Left kidneys and ureter were exposed via a flank-incision under isoflurane anesthesia after which the ureter was ligated at three sites with 4-0 silk near the hilum. After 3 days, animals were sacrificed under anesthesia and kidneys were gently flushed and harvested. Kidney cortex pieces were snap-frozen to isolate RNA as described above. Kidney pieces were fixed in 4% formalin solution in PBS to make paraffin-embedded sections for anti-α-SMA and ED-1 immunohistochemical staining and morphometric analysis.

[2] = system: endothelial cells (HUVEC); assay: Binding of 89Zr-radiolabeled RGD-equipped complex to endothelial cells; parameters: species or system human; details: 4° C. for 4 h
Protocol: The interaction of cell targeting complexes with target cells was investigated in cultured target cells. Typically, in vitro targeting studies were performed by incubating target cells with the complexes, at either 4° C. or 37° C. Binding and/or internalization of the complexes by target cells was detected by either immunohistochemical staining for the complex (e.g. anti-HSA or anti-LZM staining) or by quantification of a radioactive reporter group that had been introduced in the complex (e.g. ^125I).
Binding of RGD-equipped complexes to endothelial cells was studied using ^89Zr-radiolabeled compounds.

[3] = Pharmacokinetic evaluation of kidney directed complexes in healthy rats; type: in vivo, Wistar rats
Protocol: Organ distribution studies with this type of cell targeting complexes were performed in healthy Wistar rats. All in vivo experiments were approved by the Local Committee for Care and Use of Laboratory Animals.
Rats were injected intravenously with a single dose of the SB202190-cisULS-lysozyme conjugate (16 mg/kg equivalent to 376 μg/kg of SB202190; dissolved in 5% glucose) via the penile vein. Animals were sacrificed at different time points between 1 and 72 h after administration. Blood samples were collected by heart puncture and kidneys were isolated after flushing the organs gently with saline. Serum and organs were snap-frozen into liquid nitrogen immediately. Urine samples were collected using metabolic cages and combined with the urine collected from urinary bladder after sacrificing the animals. Kidneys were weighed, homogenized (1:3 w/v in PBS, Turrax homogenization) and then stored at −80° C. Released drug amounts were estimated by HPLC analysis after extraction as described before. To estimate total drug (bound plus released), samples were treated with KSCN to release SB202190 from the ULS linker as described above and then subjected to HPLC analysis. Anti-LZM immunohistochemical staining was performed on cryostat kidney sections to detect the uptake of the conjugate in tubular cells.
Renal drug levels were assayed in KSCN-treated kidney homogenates and serum samples using HPLC methods optimized for the respective drugs. Y27632 was analyzed on a C18 reversed-phase SunFire™ column C18 using a mobile phase of water-methanol-trifluoroacetic acid (86:14:0.1, v/v/v; pH 2.0) at a flow rate of 1 ml/min. TKI was analyzed on the same column using a mobile phase consisted of water-acetonitrile-trifluoroacetic acid (91:09:0.1, v/v/v; pH 2.0) at a flow rate of 1 ml/min.

[4] = Platinum-related toxicity of SB202190-cisULS-LZM in normal rats; type: in vivo, Male Wistar rats
From the text: In addition to drug related effects, we investigated whether administration of cell targeting complexes to healthy rats induced potential platinum related toxicity. Since the kidney is one of the major sites of platinum toxicity of cytostatic compounds, we performed these studies with SB202190-cisULS-LZM which accumulates in the kidney. We investigated morphology and induction of apoptosis (TUNEL staining), as well as basic renal parameters.
In order to detect potential platinum-related toxicity of kidney directed cell targeting complexes, we evaluated SB202190-cisULS-LZM in healthy rats.
To examine the effect on renal function, serum and urine creatinine levels were determined and creatinine clearances were calculated. […] To calculate proteinuria for the SB202190-cisULS-LZM group, the mean of the urinary protein levels at different days was taken. TUNEL stainings were performed on frozen kidney sections to examine the number of apoptotic cells. In addition, we determined the platinum levels in kidneys using […] after digestion of the tissue in concentrated nitric acid for 24 h at room temperature and heating at 70° C. until the formation of clear solution.

[5] = Drug release studies (stability of drug-carrier linkage); type: in vitro ADME
Protocol: The stability of the drug-carrier linkage was investigated by incubating cell targeting complexes at 37° C. under several conditions, e.g. buffers, buffers spiked with drug releasing substances or biological media.

[6] = system: hepatic fibrosis in BDL rats; assay: Antifibrotic effect of losartan-cisULS-M6PHSA in BDL model of liver fibrosis; type: in vivo; details: four daily doses
Protocol: Ten minutes after the last dose, animals were sacrificed and blood and liver samples were obtained. […] The extraction was performed by adding 3 ml of methyl butyl ether to 200 μl of liver homogenate and vortexing for 5 min. Layers were separated by centrifugation at 900×g for 5 min and the aqueous layer was frozen in liquid nitrogen. The upper organic layer was transferred to another borosilicate glass tube and evaporated completely at 60° C. The extraction procedure was repeated twice and the total residue was reconstituted in 200 μl of mobile phase. Chromatography was carried out using a C18 (C18, 5 μm, 4.6×150 mm) reversed-phase column (Surefire, Waters Inc., Milford, Mass., USA) at 40° C. with an isocratic mobile phase consisting of acetonitrile-water-trifluoroacetic acid (30:70:0.1, v/v/v; pH 2.0).
Animal experiments were performed as described above.

[7] = Organ distribution and liver losartan levels in BDL rats; type: in vivo
Protocol: The extraction was performed by adding 3 ml of methyl butyl ether to 200 μl of liver homogenate and vortexing for 5 min. Layers were separated by centrifugation at 900×g for 5 min and the aqueous layer was frozen in liquid nitrogen. The upper organic layer was transferred to another borosilicate glass tube and evaporated completely at 60° C. The extraction procedure was repeated twice and the total residue was reconstituted in 200 μl of mobile phase. Chromatography was carried out using a C18 (C18, 5 μm, 4.6×150 mm) reversed-phase column (Surefire, Waters Inc., Milford, Mass., USA) at 40° C. with an isocratic mobile phase consisting of acetonitrile-water-trifluoroacetic acid (30:70:0.1, v/v/v; pH 2.0).

[8] = system: activated hepatic stellate cells (HSC); assay: Immunohistochemical staining of fibrosis markers in HSC after 24 h incubation; type: cell-based; details: conjugates 1 mg/ml (100 μM PTX), non-targeted PTX 1 mM
Protocol: The pharmacological effects of the conjugates were tested on different cultured cell types, e.g. activated hepatic stellate cells (HSC), kidney tubular cells (HK-2 cells) or human umbilical cord endothelial cells (HUVEC). Typically, cells were incubated for 24 h at 37° C. with the conjugates. Subsequently, the cells were subjected to analyses related to pharmacological activity of the coupled drug (gene expression analysis, immunohistochemcial evaluation of effect markers), or assays related to potential cytotoxicity of the complexes (cell viability assays, apoptosis assays).
FIG. 5. […] Cells were stained for collagen type I or α-smooth muscle actin and counterstained with hematoxillin. […] Magnification 10×. One of the hallmarks of liver fibrosis is the induced expression and production of a-smooth muscle actin (aSMA) and collagen type 1 by activated HSC. These proteins were therefore selected as read-out parameters of the antifibrotic effects of the targeted PTX.

[9] = 5 mg/kg of free SB202190, 4 h after administration; cited from earlier work
[10] = system: IL8 gene expression in HUVEC treated with TNF; assay: IL8 gene expression in TNF-treated HUVEC; type: cell-based, human; details: 10 μM
I/R rats = assay: Unilateral ischemia/reperfusion injury (I/R) model; type: in vivo
[11] = normal rats, mean ± SEM, SB-ULS-LZM at 24, 32, 48 and 72 h, cisplatin 3 mg/kg i.v. at 24 h
[12] = four i.v. doses, 20 mg/kg conjugate or 555 μg/kg Y27632

IC50 [1]: 134 nM
Molecule: RGDPEG-avidin: avidin with RGD-peptide via vinylsulfone-PEG-NHS, average 5.4 RGD groups per avidin

Molecule: c1ccc(-c2n[nH]cc2-c2ccnc3ccccc23)nc1 [TKI, 3-(Pyridin-2-yl)-4-(4-quinonyl)-1H-pyrazole]
MCP-1 gene expression in kidney (UUO rats; single dose 25 mg/kg conjugate or 630 μg/kg TKI): did not lower the expressions of MCP-1
expression of the fibrosis marker α-SMA (UUO rats; single dose): significantly decreased
infiltrated macrophages (ED-1 immunostaining) (UUO rats; single dose): a reduction of ED-1 immunostaining

Molecule: c(RGDf(ε-S-acetylthioacetyl)K) [RGD-peptide]
displacement of binding of RGDPEG-SB202190-cisULS-HSA [2]: could be displaced

Molecule: SB202190-cisULS-LZM
free drug in serum / serum stability ([3]; 16 mg/kg i.v. single dose, 1-72 h): free drug was absent at all time points; also recorded: remained stable in the serum
accumulation in the kidneys ([3]; 16 mg/kg i.v., within 1 h): 20 % of the injected dose
accumulation in proximal tubular cells (anti-LZM staining) ([3]; kidney sections): accumulation of the conjugate in proximal tubular cells was confirmed
renal levels of free and bound drug over time ([3]; single dose 16 mg/kg i.v.): continuous levels of both free drug and bound drug during a three-day period
tubular cell apoptosis by TUNEL staining ([4]; as compared to untreated rats): no increase in the number of apoptotic cells
urinary protein levels ([4]; in comparison to untreated rats): an increase in urinary protein levels
TUNEL positive cells ([4]; normal rats, kidney sections, mean ± SEM, cisplatin at 24 h): 42.7 ± 18 numbers per field
Renal platinum concentration ([4]; normal rats, ICP-AAS, mean ± SEM): 37.0 ± 1.2 nmol/g
Change in body weight ([4]; normal rats, mean ± SEM): +0.3 ± 1.2 %
Creatinine clearance [4, 11]: 0.8 ± 0.03 mL/min
urinary protein levels [4, 11]: 29.6 ± 2.0 mg/day
Stability / release of SB202190 ([5]; 37° C. in PBS pH 7.4 or rat serum): high stability in buffer or serum
Release of SB202190 ([5]; 37° C., kidney homogenate in PBS 1/3 (w/v)): continuously released free drug

liver losartan as % of the cumulative dose ([7]; BDL rats, 10 min after last dose): 4%
concentration at 10 min ([7]; rat, liver, oral, 5 mg/kg/day): 12100 ng/g
Molecule: CCCCc1nc(Cl)c(CO)n1Cc1ccc(-c2ccccc2-c2nn[nH]n2)cc1 [losartan]
hepatic fibrosis, Sirius Red staining [6]: Severe bridging
αSMA-positive cells in liver [6]: marked accumulation of αSMA-positive cells

Molecule: CC(=O)CCCCn1c(=O)c2c(ncn2C)n(C)c1=O [PTX, 3,7-dimethyl-1-(5-oxohexyl)purine-2,6-dione]
aSMA staining intensity [8]: reduced the intensity of both collagen type I production and aSMA
collagen type I staining [8]: reduced the intensity of both collagen type I production and aSMA

Molecule: Oc1ccc(-c2nc(-c3ccncc3)c(-c3ccc(F)cc3)[nH]2)cc1 [SB202190, 4-(-Fluorophenyl)-2-(4-hydroxy-phenyl)-5-(4-pyridyl)-1H-imidazole]
fraction distributed to the kidney [9]: 0.2%
IL8 gene expression level after inhibition [10]: 40%

Molecule: losartan-cisULS-LZM
number of infiltrated macrophages (ED-1) (I/R rats; four doses 20 mg/kg/day): reduced the number of infiltrated macrophages

Molecule: Y27632-cisULS-LZM: Y27632-cisULS reacted with met-LZM, 1-2 Y27632 per LZM
infiltration of macrophages, ED-1 staining morphometric score (I/R rats; [12]): significantly reduced the morphometric score of the stained areas
α-SMA staining morphometric score (I/R rats; [12]): significantly reduced the morphometric score of the stained areas
